Measurements taken from patent publication US20240158348A1, “HERBICIDAL CYCLIC AMIDES N-SUBSTITUTED WITH A HALOALKYLSULFONYLANILIDE GROUP” (FMC Corporation, priority 2021, published 2024).

How the values were obtained:
Type in all cases: in vivo
[1] = tested on: ryegrass, Italian (Italian ryegrass, Lolium multiflorum); test: Test C preemergence, Italian ryegrass; conditions: 0 is no effect, 100 is complete control
Summary of the method: (§1)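 Visual injury rating, 0 (no effect) to 100 (complete control), versus untreated controls after 10 or 12 days in the greenhouse. Compounds were formulated in non-phytotoxic solvent plus surfactant and applied either as a directed soil spray at sowing or onto emerged one- to two-leaf plants.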

[2] = tested on: soybean (Glycine max); test: Test C preemergence, soybean; conditions: 0 is no effect, 100 is complete control
Summary of the method: as §1

[3] = tested on: corn (Zea mays); test: Test C postemergence, corn; conditions: for Corn plant response rating: 31 g ai/ha Postemergence, visual injury, 0 to 100 scale (0 no effect, 100 complete control); for Plant response rating (0 to 100 scale), Corn: 125 g ai/ha Postemergence, 0 is no effect, 100 is complete control
[4] = tested on: goosegrass (Eleusine indica); test: Test C postemergence, goosegrass; conditions: for Goosegrass plant response rating: 31 g ai/ha Postemergence, visual injury, 0 to 100 scale (0 no effect, 100 complete control); for Plant response rating (0 to 100 scale), Goosegrass: 125 g ai/ha Postemergence, 0 is no effect, 100 is complete control
Summary of the method: as §1

[5] = tested on: pigweed, palmer (palmer amaranth, Amaranthus palmeri); test: Test C postemergence, palmer amaranth; conditions: for Pigweed, Palmer plant response rating: visual injury, 0 to 100 scale (0 no effect, 100 complete control); for Plant response rating (0 to 100 scale), Pigweed, Palmer: 0 is no effect, 100 is complete control
Summary of the method: as §1

[6] = tested on: ragweed (common ragweed, Ambrosia artemisiifolia); test: Test C postemergence, ragweed; conditions: for Ragweed plant response rating: visual injury, 0 to 100 scale (0 no effect, 100 complete control); for Plant response rating (0 to 100 scale), Ragweed: 0 is no effect, 100 is complete control
Summary of the method: as §1

[7] = tested on: horseweed (Erigeron canadensis); test: Test C postemergence, horseweed; conditions: for Horseweed plant response rating: 31 g ai/ha Postemergence, visual injury, 0 to 100 scale (0 no effect, 100 complete control); for Plant response rating (0 to 100 scale), Horseweed: 125 g ai/ha Postemergence, 0 is no effect, 100 is complete control
Summary of the method: as §1

[8] = tested on: barnyardgrass (Echinochloa crusgalli); test: Test D flooded paddy test, barnyardgrass; parameters: key: 0 = no effect, 100 = complete control; conditions: 250 g ai/ha, Flood; applied to paddy water at 2-leaf stage; visual rating after 13 days; scale 0 (no effect) to 100 (complete control)
Summary of the method: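 Test compounds applied directly to paddy water after pots were flooded to 3 cm above soil, with plants at 2-leaf stage; depth held throughout. Greenhouse for 13 days, then visual rating versus controls on 0–100 scale (0 no effect, 100 complete control); dash means no result.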

SMILES	Plant response rating (0 to 100 scale), Ryegrass, Italian ([1]; 31 g ai/ha Preemergence)	Plant response rating (0 to 100 scale), Ryegrass, Italian ([1]; 125 g ai/ha Preemergence)	Plant response rating (0 to 100 scale), Soybean ([2]; 31 g ai/ha Preemergence)	Plant response rating (0 to 100 scale), Soybean ([2]; 125 g ai/ha Preemergence)	Corn plant response rating [3]	Plant response rating (0 to 100 scale), Corn [3]	Goosegrass plant response rating [4]	Plant response rating (0 to 100 scale), Goosegrass [4]	Pigweed, Palmer plant response rating ([5]; 31 g ai/ha Postemergence)	Plant response rating (0 to 100 scale), Pigweed, Palmer ([5]; 125 g ai/ha Postemergence)	Ragweed plant response rating ([6]; 31 g ai/ha Postemergence)	Plant response rating (0 to 100 scale), Ragweed ([6]; 125 g ai/ha Postemergence)	Horseweed plant response rating [7]	Plant response rating (0 to 100 scale), Horseweed [7]	Plant response rating, Barnyardgrass [8]	Pigweed, Palmer plant response rating ([5]; 125 g ai/ha Postemergence)	Ragweed plant response rating ([6]; 125 g ai/ha Postemergence)
CCOC(=O)N(c1cc(N2CCC(OC3CC3)C2=O)c(C)cc1C)S(=O)(=O)C(F)(F)F (stereo not drawn) [Compound 19]	0	0	30	90	0	20	0	90	0	10	60	90	10	30	0		
Cc1cc(C)c(N2CCC(OCC3CC3)C2=O)cc1NS(=O)(=O)C(F)(F)F (stereo not drawn) [Compound 22]	100	100	80	90	50	90	70	90	50	80	60	80	90	90	90		
Cc1c(NS(=O)(=O)C(F)(F)F)cc(N2CCC(OC3CCC3)C2=O)c(C)c1F (stereo not drawn) [Compound 25]	90	100	80	90	30	60	50	90	70		60				0	90	80
Cc1c(NS(=O)(=O)C(F)(F)F)cc(N2CCC(OC3CC3)C2=O)c(C)c1F (stereo not drawn) [Compound 26]	90	100	70	90	50	90	80	100	70		60				30	90	80
Cc1c(N2CCC(OC3CCC3)C2=O)cc(N(COC(=O)C(C)(C)C)S(=O)(=O)C(F)(F)F)c(C)c1F (stereo not drawn) [Compound 28]	30	90	20	80	10	30	30	70	50		80				60	90	80
Cc1cc(Cl)c(N(COC(=O)C(C)(C)C)S(=O)(=O)C(F)(F)F)cc1N1CCC(OC2CC2)C1=O (stereo not drawn) [Compound 33]	20	100	0	60	80	90	60	90	20		90		70	100	90	80	90
Cc1cc(C)c(N2CCC(OC3COC3)C2=O)cc1NS(=O)(=O)C(F)(F)F (stereo not drawn) [Compound 34]	40	80	40	90	60	90	30	80	70		90		90	100	35	100	90
